In patent US6855353B2, “Method for producing antioxidant and prevention of cancer” (priority 2002, dated 2005):

Experiments:
[1] = system: NNK-induced lung tumorigenesis; experiment: NNK-induced lung tumorigenesis; type: in vivo, mice; settings: RES by injection 20 mg/kg daily; 10 μmol NNK i.p.; pulmonary adenomas counted after sixteen weeks
Experimental: The capacity of tobacco-specific nitrosamine 4-(methylnitrosamino)-1-(3-pyridyl)-1-butanone (NNK) to induce tumor incidence was recognized several years ago. Every group had 20 mice. For treatment group, each mouse was gave RES by injection at dose of 20 mg/kg daily. For control group, each mouse was gave same volume of physiological saline. Three days later, mice were gave 10 μmol NNK (in 0.1 ml saline) by i.p. injection. Sixteen weeks after these treatments the mice were killed and pulmonary adenomas were counted. The statistical significance of bioassay data was determined by student's test.

Aminopyrine demethylase = experiment: Effect of RES on hepatic microsomal monooxygenases: aminopyrine demethylase; type: in vivo; settings: rat liver microsomes
Experimental: (§1) In the present study, the effect of RES on the activities of hepatic microsomal monooxygenases was examined.
(§2) Microsomal preparations—the microsomes used were prepared from rat's liver. The liver was thoroughly perfused in situ with more than 200 ml of 0.9% NaCl solution. The liver was excised, and homogenized with 4 volumes of isotonic (1.15%) KCl solution in a Potter glass homogenizer. The homogenate was centrifuged at 12,000×g for 25 minutes in a refrigerated centrifuge, and the precipitate was discarded. The microsomes were sedimented by centrifugation at 78,000×g for 90 minutes in a Hitachi model 40P preparative ultracentrifuge. The firmly packed pellet of microsomes was resuspended in isotonic KCl solution with the Potter homogenizer and again centrifuged as above. The washed microsomes were finally suspended in isotonic KCl, usually at a concentration of 10 mg of protein per ml. The resultant microsomal suspensions were stored at 4° C. and used within 2 to 3 days. In these preparations isotonic KCl was employed, instead of the more usual 0.25 M sucrose, so as to minimize the adsorption of hemoglobin on microsomes.
(§3) Cytochrome P-450, NADPH-cytochrome creductase, aminoyrine demethylase and benzpyrene hydroxylase determined as previously described. Other methods are as same as above section.

[2] = system: NADPH-cytochrome Creductase; experiment: Effect of RES on hepatic microsomal monooxygenases: NADPH-cytochrome c reductase; type: in vivo; settings: rat liver microsomes
Experimental: as §1, §2, §3

Cytochrome P-450 = experiment: Effect of RES on hepatic microsomal monooxygenases: cytochrome P-450; type: in vivo; settings: rat liver microsomes
Experimental: as §1, §2, §3

Benzpyrene hydroxylase = experiment: Effect of RES on hepatic microsomal monooxygenases: benzpyrene hydroxylase; type: in vivo; settings: rat liver microsomes
Experimental: as §1, §2, §3

[3] = system: p53 gene in gastric cancer cells; experiment: Effect of RES on p53 allelic loss (PCR-SSCP); type: cell-based
Experimental: (§4) The gastric cancer cells and normal cells were cultured in RPMI 1640 medium supplement with 10% fetal bovine serum. All the exons of the p^53 gene were amplified by the polymease chain reaction (PCR) using specific oligonucleotide primers. The PCR products were subjected to single-strand conformation polymorphism (SSCP) analysis.

GSH-Px [4] = experiment: Effect of RES on super-oxidation during reperfusion of ischemia heart: GSH-Px; parameters: species or system rats
Experimental: (§5) H2O2 in the body is cleared by catalase and glutathione peroxidase (GSH-Px) catalysis. In myocardium, catalase activity of GSH-Px was lower.
(§6) In the present study we examined the effect of RES on super-oxidation during reperfusion of ischemia heart.
(§7) Male rats (280 to 320 g body weight) of Spague-Dawley strain maintained on a standard diet were used in these experiments. The rats were lightly anesthetized with diethyl ether, the left femoral vein was exposed and heparin (200 IU) was administered intravenously. 1 minute after administration of heparin the heart was excised and placed in ice cool perfusion medium until contraction had ceased. The heart was then mounted on the perfusion apparatus.
(§8) Langendorff perfusion for an initial 10 min. period, the perfusion was continued as a working preparation for an additional 30 min. The hearts were all electrically paced at between 265 and 275 beats/min during working perfusion.
(§9) The perfusate was Krebs-Henseleit bicarbonate buffer gassed with 95% oxygen and 5% carbon dioxide. This perfusate contained 11 mM D-glucose during the Langendorff perfusion.
(§10) Aortic pressure, heart rates, coronary flows and aortic outputs were monitored during perfusion. […] The perfusate of control group contained buffer only. At the end the frozen hears were store in liquid nitrogen until assayed for metabolic intermediates. […]

Lipoperoxides = experiment: Effect of RES on peroxidation (hepatic lipoperoxide content, CCl4-induced hepatic damage); type: in vivo
Experimental: The experiments were performed as previously described. Hepatic lipoperoxide content was determined as described by Uchiyama.
In the present study, the effect of RES on lipoperoxides was examined.
It is known that the pathogenesis of CCl4—induced hepatic damage involved reactive oxidant species increasing from the metabolism. The liver injure caused by CCl4 is due to the formation of a reactive toxic metabolite by the hepatic cytochrome P-450 system.

SOD = experiment: Effect of RES on super-oxidation during reperfusion of ischemia heart: SOD; parameters: species or system rats
Experimental: as §5, §6, §7, §8, §9, §10

mouse epidermis = experiment: Rate of [3H] thymidine incorporation in normal and TPA-stimulated mouse epidermis; type: in vivo
Experimental: It is known that tetradecanoyphorbol-13-acetate (TPA) is strong tumor promoter and TPA can remarkable increase [^3H] thymidine incorporation in mouse epidermis and then to induce Epidermis cancer.
Mice were treated with TPA and the rate of [^3H] thymidine incorporation was determined 20 hours later. Male mice (7-9 weeks old) used for experiments. Only mice showing no hair regrowth following shaving were used. Animals were injected intraperitoneally (i.p.) with TPA or […]. After 20 hours, mice were injected i.p. with 60 μCi of [^3H] thymidine (2 Ci/mmol) 20 minutes before sacrifice. Epidermal scrapings were prepared. Homogenized in distilled water at 4° C., and the macromolecules precipitated with 0.4 N trichloracetic acid (TCA). Following 6 washes with 0.2 N TCA at 4° C. and 2 washes with absolute ethanol at room temperature, the nucleic acids were hydrolyzed with 0.5 N TCA at 90° C. for 5 minutes. The hydrolysates (0.2 ml aliquots) were counted in a scintillation counter and assayed for DNA. Each value is the mean±range for three separately treated mice. Each counted aliquot (0.2 ml) contained approximately 10 μg of DNA.

GSH-Px [5] = experiment: Effect of RES on GSH-Px activity in tissues after 30 days feeding; type: in vivo; settings: 0.2% RES solution as drinking water up to 30 days
Excerpt: Glutathion peroxidase (GSH-Px) is an important enzyme, which has a high activity in cancer tissues.
Twenty animals were divided into two groups of ten each and fed with either normal drinking water (control group) or 0.2% of RES solution (experimental group); this defined feeding regimen was continued up to 30 days. At the end of the feeding regimen, the animals were sacrificed, and whole skin, small bowel, liver, and lung were removed and immediately placed in ice-cold 0.1 M phosphate buffer, pH 7.4. Tissues were cleaned properly, minced and homogenized in the same buffer, and a 100,000×g supernatant fraction was prepared as described earlier. GSH-Px and GSH-r activities were measured.

c-myc RNA = experiment: Inhibition of oncogene expression in ML-1 cells (northern blot): c-myc; type: cell-based, Human
Experimental: (§11) Human myeloblastic leukemic cell (ML-1) had been described previously. Cells were maintained in suspension culture in RPMI 1640 medium supplemented with 7.5% heat-inactivated FBS. Cells growth and viability were assayed by hemocytometer using trypan blue dye exclusion.
(§12) RNA was isolated by the CsCl gradient modification. RNA pellets were washed twice by reprecipitation in ethanol and quantitated by absorbency at […]. RNA analyzed by electrophoresis of 15 μg of RNA through 1.2% agarose formaldehyde gels followed by northern blot transfer to nitrocellulose.
(§13) Single-standard uniformly labeled DNA probes were prepared. Probe of c-myc was a 1.7 Kb cla-Eco RI restriction fragment containing the 3′exon region of human c-myc and probe of c-myb was 1.0 Kb myb-specific Bam HI fragment. Probes for n-ras contained DNA fragments using a modification of the PCR technique. Probes for myb, myc and n-ras were isolated by electrolution. The isolated fragments were labeled to high specific activity with [α^32P]-dCTP (3000 ci/mmol). Prehybridization of the filter was performed. The hybridization mixer contained 50,000 cpm of probe. The probes were hybridized at 58° C. in 15 mM NaCl, […] sodium citrate for 3 hours. After hybridization, they were exposed to XAR-5 film. Oncogene expression was quantitated by densitometer scanning of the autoradiography.

c-myb RNA = experiment: Inhibition of oncogene expression in ML-1 cells (northern blot): c-myb; type: cell-based, Human
Experimental: as §11, §12, §13

[6] = system: bovine aortic smooth muscle cell modified LDL; experiment: Effect of RES on lower density lipoprotein oxidation (MDA); type: cell-based; settings: LDL + 100 μg RES/ml, 37° C., 24 h; x ± s
[7] = system: 17p in gastric cancer cells; experiment: Effect of RES on 17p allelic loss (PCR-SSCP); type: cell-based
Experimental: as §4

n-ras RNA = experiment: Inhibition of oncogene expression in ML-1 cells (northern blot): n-ras; type: cell-based, Human
Experimental: as §11, §12, §13

[8] = gastric cancer cells treated by RES
[9] = gastric cancer cells treated by RES vs no drug
[10] = ischemia heart, perfusate with 0.05 mg of RES/ml
[11] = pre-perfusion with 4×10^−6 g of RES/ml

Oc1ccc(/C=C/c2cc(O)cc(O)c2)cc1 [RES, resveratol]
Tumor incidence [1]: 28.5 ± 3.0% | Aminopyrine demethylase (Aminopyrine demethylase): 170.0 ± 18 nmol HCHO/mg protein | NADPH-cytochrome Creductase [2]: 198.5 ± 20 nmol/mg protein | Cytochrome P-450 (Cytochrome P-450): 2.65 ± 0.35 nmol/mg protein | Benzpyrene hydroxylase (Benzpyrene hydroxylase): 48.9 ± 5.8 nmol/mg protein | Frequency of p53 allelic loss [3, 8]: 12% | Inhibition T/C (p53 allelic loss) [3, 9]: 36% | GSH-Px (GSH-Px [4]; [10]): 18.9 ± 2.0 μ/g.w | GSH-Px activity versus control group (GSH-Px [4]; [11]): significantly higher | Lipoperoxides T/C, 1h (Lipoperoxides; 1h): 87% | Lipoperoxides, 1 h (Lipoperoxides; 1 h, CCl4-induced hepatic damage): 0.65 ± 0.07 mmol MDA/g liver protein | Lipoperoxides T/C, 3h (Lipoperoxides; 3h): 72% | Lipoperoxides, 3 h (Lipoperoxides; 3 h, CCl4-induced hepatic damage): 0.62 ± 0.069 mmol MDA/g liver protein | Lipoperoxides T/C, 6h (Lipoperoxides; 6h): 55% | Lipoperoxides, 6 h (Lipoperoxides; 6 h, CCl4-induced hepatic damage): 0.60 ± 0.70 mmol MDA/g liver protein | Lipoperoxides T/C, 12h (Lipoperoxides; 12h): 40% | Lipoperoxides, 12 h (Lipoperoxides; 12 h, CCl4-induced hepatic damage): 0.59 ± 0.60 mmol MDA/g liver protein | Lipoperoxides T/C, 24h (Lipoperoxides; 24h): 22% | Lipoperoxides, 24 h (Lipoperoxides; 24 h, CCl4-induced hepatic damage): 0.58 ± 0.58 mmol MDA/g liver protein | SOD activity (SOD; [10]): 10.5 ± 1.2 μg/protein | SOD activity versus control group (SOD; [11]): significantly higher | Specific activity, [3H] thymidine incorporation, TPA (mouse epidermis; TPA-stimulated mouse epidermis, 20 hours after TPA): 33.0 ± 4.5 cpm/μg DNA | Specific activity, [3H] thymidine incorporation, Normal (mouse epidermis; normal mouse epidermis): 32.2 ± 4.0 cpm/μg DNA | GSH-Px activity, Liver (GSH-Px [5]; liver): 34 ± 50 n mol NADPH oxidized/mg protein/min | GSH-Px activity, Lung (GSH-Px [5]; lung): 22 ± 3.5 n mol NADPH oxidized/mg protein/min | GSH-Px activity, Skin (GSH-Px [5]; skin): 260 ± 30 n mol NADPH oxidized/mg protein/min | Inhibition (%) c-myc RNA (c-myc RNA): 30.1 ± 4.2% | Inhibition (%) c-myb RNA (c-myb RNA): 25.6 ± 3.5% | MDA [6]: 2.75 ± 0.29 nmol/mg protein | Frequency of 17p allelic loss [7, 8]: 18.8% | Inhibition T/C (17p allelic loss) [7, 9]: 49% | Inhibition (%) n-ras RNA (n-ras RNA): 35.7 ± 3.8%
